Values of other authors in US11529357B2, “Injectable carbamazepine composition essentially free of 10-bromo-carbamazepine” (H. Lundbeck A/S, priority 2019, dated 2022).

Compound: NC(=O)N1c2ccccc2C=Cc2ccccc21 [carbamazepine, 5H-dibenzo[b,f]azepine-5-carboxamide]
- average oral bioavailability: 65-70%
